For one test, the target named is ADORA2A (Homo sapiens, UniProt P29274). Nature of the test: Safetyscan47 GPCR Calcium Flux, Antagonist. It is filed as cell-based. Conditions: for Emax: read-out: Max Response. (In general: A change in cytosolic calcium serves as a functional read-out for many receptors and channels.)
Another test concerns the target COX1 (Homo sapiens, UniProt P23219). Nature of the test: Safetyscan47 Non-Kinase Enzymes Enzymatic, Inhibitor. It is filed as biochemical. Conditions: for Emax: read-out: Max Response.
The target of test [1] is T1, CHRM2 (Homo sapiens, UniProt P08172).
T1 sequence (P08172 1-466): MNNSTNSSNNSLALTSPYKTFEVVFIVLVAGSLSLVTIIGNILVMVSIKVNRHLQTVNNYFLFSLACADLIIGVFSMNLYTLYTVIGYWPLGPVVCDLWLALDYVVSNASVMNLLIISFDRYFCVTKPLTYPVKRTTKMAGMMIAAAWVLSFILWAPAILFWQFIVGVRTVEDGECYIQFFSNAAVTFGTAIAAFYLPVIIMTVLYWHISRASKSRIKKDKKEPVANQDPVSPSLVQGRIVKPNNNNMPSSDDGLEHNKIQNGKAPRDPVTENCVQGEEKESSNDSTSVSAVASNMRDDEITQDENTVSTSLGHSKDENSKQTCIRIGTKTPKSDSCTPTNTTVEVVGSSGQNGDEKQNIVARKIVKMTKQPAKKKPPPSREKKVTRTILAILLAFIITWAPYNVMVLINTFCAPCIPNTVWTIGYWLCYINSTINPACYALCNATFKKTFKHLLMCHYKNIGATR
Nature of the test: Safetyscan47 GPCR cAMP, Agonist. It is filed as cell-based. The conditions noted are these: for Emax: read-out: Max Response.

A further test has as its target CHRM3 (Homo sapiens, UniProt P20309). Nature of the test: Safetyscan47 GPCR Calcium Flux, Agonist. Conditions: for Emax: read-out: Max Response. It is filed as cell-based.
The target in the next test is OPRM1 (Homo sapiens, UniProt P35372). Nature of the test: Safetyscan47 GPCR cAMP, Agonist. The format is cell-based. Conditions: for Emax: OPRM1, read-out: Max Response.
The next test has as its target T2, HTR3A (Homo sapiens, UniProt P46098).
T2 sequence (P46098 24-478): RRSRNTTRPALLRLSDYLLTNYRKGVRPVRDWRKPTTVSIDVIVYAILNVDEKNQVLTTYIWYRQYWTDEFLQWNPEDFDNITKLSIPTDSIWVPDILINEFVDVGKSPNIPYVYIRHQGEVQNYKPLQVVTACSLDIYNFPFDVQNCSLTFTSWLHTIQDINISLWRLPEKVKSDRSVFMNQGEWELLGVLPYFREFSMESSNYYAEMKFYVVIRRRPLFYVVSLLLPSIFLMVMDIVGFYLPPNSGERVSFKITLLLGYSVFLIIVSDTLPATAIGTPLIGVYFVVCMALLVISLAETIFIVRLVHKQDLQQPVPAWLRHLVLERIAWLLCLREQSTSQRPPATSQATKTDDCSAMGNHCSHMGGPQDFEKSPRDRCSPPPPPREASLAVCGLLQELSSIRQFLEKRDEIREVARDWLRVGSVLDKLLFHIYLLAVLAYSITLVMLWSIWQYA
The test can be described thus: Safetyscan47 Ion Channel, Blocker. The format is cell-based. The conditions noted are these: for Emax: read-out: Max Response.

The target of a further test is VEGFR2 (Homo sapiens, UniProt P35968). Nature of the test: Safetyscan47 Kinases Binding, Inhibitor. Conditions: for Emax: read-out: Max Response.
For a further test, the target named is HRH1 (Homo sapiens, UniProt P35367). Nature of the test: Safetyscan47 GPCR Calcium Flux, Antagonist. The format is cell-based. The conditions noted are these: for Emax: read-out: Max Response.
Test [2] deals with T1, CHRM2. The test can be described thus: Safetyscan47 GPCR cAMP, Antagonist. It is filed as cell-based. The conditions noted are these: for Emax: read-out: Max Response.
For the next test, the target named is T3, CCKAR (Homo sapiens, UniProt P32238).
T3 sequence (P32238 1-428): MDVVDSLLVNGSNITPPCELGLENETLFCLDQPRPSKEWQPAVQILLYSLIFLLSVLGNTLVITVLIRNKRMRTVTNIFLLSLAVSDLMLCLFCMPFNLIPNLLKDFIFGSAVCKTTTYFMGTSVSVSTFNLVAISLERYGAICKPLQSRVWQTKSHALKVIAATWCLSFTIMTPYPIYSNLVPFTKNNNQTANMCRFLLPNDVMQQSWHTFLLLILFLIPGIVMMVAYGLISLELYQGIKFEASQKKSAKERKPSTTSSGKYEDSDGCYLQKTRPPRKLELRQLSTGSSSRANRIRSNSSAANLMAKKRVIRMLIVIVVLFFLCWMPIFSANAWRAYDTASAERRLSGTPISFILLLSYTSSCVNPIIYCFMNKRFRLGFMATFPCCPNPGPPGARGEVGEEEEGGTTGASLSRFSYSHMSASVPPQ
The test can be described thus: Safetyscan47 GPCR Calcium Flux, Agonist. The format is cell-based. Conditions: for Emax: read-out: Max Response.

In a further test the target is OPRD1 (Homo sapiens, UniProt P41143). Nature of the test: Safetyscan47 GPCR cAMP, Agonist. The format is cell-based. Conditions: for Emax: read-out: Max Response.

Bridge positions count the residues as written; N and C are the ends. Side chains are listed from the residue outwards. Peptide text beside a SMILES is read from it. * marks the point of attachment. Butanoyl(4-(4-I-phenyl)) = O=C(CCCc1ccc(I)cc1)*; PEG2 = NCCOCCOCCC(=O)O Bounds are passed on as bounds.

By IC50 is commonly meant the midpoint of a concentration-inhibition curve. A word on the EC50: it is the concentration giving half of the maximal effect.

HRH1, sequence (P35367 whole entry): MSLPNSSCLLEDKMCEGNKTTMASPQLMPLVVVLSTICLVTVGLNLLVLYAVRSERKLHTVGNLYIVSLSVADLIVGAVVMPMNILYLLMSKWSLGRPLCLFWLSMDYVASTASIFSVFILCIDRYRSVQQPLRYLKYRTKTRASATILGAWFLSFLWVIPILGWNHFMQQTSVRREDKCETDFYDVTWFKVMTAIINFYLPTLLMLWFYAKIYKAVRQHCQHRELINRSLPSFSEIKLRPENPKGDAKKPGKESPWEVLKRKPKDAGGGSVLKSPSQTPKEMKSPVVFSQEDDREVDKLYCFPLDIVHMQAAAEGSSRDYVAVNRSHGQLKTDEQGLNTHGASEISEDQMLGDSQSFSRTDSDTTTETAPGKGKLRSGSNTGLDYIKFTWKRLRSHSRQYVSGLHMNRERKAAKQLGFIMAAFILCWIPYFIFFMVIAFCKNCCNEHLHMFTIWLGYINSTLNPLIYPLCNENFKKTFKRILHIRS
VEGFR2, sequence (P35968 20-1356): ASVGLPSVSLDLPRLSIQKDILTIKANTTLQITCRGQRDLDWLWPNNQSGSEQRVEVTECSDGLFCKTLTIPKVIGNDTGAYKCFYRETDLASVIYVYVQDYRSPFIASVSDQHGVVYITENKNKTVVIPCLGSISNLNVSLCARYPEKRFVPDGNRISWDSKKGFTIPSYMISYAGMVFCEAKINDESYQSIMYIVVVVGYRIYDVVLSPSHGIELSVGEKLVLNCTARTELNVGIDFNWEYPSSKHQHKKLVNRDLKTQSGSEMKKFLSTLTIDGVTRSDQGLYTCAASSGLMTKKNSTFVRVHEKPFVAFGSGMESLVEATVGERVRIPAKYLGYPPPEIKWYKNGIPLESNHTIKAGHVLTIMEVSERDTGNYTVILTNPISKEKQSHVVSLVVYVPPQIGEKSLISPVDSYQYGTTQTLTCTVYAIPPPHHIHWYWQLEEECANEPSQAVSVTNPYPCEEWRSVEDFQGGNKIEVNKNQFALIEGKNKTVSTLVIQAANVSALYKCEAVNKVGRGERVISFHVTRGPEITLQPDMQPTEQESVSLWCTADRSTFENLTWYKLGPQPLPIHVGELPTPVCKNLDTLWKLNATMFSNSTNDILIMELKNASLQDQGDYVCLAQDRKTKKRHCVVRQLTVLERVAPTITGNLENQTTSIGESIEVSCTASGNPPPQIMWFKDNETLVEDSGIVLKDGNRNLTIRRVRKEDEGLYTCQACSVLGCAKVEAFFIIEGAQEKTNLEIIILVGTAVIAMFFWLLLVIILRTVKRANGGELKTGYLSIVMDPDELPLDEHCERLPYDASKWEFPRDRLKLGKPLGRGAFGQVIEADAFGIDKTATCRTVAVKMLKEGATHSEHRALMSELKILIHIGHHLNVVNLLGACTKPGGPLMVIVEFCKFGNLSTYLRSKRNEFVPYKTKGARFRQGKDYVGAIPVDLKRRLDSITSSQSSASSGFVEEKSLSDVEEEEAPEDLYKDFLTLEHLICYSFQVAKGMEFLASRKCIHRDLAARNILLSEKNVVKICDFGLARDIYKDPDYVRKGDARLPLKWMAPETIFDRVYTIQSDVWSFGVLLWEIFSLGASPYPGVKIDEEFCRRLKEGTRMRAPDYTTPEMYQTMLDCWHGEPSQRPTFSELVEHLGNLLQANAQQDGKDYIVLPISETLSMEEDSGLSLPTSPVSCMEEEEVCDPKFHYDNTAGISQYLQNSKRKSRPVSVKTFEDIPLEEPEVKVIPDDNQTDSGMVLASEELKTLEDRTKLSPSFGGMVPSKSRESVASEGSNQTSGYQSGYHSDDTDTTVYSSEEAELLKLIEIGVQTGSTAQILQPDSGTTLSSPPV
OPRM1, sequence (P35372 whole entry): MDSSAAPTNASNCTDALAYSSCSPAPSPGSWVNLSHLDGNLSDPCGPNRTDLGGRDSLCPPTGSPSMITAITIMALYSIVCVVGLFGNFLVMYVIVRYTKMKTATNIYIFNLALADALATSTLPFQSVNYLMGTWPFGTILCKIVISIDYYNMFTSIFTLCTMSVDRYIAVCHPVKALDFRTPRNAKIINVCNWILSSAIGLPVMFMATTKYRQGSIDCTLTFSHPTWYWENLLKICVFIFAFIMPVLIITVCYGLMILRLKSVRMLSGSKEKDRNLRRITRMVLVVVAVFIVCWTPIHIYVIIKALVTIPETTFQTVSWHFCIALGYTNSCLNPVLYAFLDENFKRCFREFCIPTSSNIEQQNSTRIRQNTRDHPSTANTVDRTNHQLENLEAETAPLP
OPRD1, sequence (P41143 whole entry): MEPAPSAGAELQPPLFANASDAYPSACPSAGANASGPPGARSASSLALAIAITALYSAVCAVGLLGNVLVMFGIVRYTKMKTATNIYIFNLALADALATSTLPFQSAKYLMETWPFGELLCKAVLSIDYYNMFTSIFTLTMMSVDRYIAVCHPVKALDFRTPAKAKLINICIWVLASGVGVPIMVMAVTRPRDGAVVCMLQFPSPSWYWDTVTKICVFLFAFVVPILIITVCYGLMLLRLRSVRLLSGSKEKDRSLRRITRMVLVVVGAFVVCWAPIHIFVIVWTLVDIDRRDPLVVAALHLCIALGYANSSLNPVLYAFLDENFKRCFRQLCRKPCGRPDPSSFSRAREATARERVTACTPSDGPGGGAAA
ADORA2A, sequence (P29274 whole entry): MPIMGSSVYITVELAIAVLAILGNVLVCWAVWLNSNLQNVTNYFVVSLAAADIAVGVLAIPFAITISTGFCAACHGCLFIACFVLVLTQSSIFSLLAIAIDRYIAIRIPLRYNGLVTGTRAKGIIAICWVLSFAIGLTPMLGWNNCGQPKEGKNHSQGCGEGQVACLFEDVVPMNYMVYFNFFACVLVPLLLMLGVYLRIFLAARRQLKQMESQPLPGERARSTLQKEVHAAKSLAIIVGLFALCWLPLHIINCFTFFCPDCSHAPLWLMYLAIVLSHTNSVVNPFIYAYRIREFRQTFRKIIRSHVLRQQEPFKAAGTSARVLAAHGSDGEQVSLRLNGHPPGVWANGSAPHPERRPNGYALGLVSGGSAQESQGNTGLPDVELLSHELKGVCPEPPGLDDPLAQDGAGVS
CHRM3, sequence (P20309 whole entry): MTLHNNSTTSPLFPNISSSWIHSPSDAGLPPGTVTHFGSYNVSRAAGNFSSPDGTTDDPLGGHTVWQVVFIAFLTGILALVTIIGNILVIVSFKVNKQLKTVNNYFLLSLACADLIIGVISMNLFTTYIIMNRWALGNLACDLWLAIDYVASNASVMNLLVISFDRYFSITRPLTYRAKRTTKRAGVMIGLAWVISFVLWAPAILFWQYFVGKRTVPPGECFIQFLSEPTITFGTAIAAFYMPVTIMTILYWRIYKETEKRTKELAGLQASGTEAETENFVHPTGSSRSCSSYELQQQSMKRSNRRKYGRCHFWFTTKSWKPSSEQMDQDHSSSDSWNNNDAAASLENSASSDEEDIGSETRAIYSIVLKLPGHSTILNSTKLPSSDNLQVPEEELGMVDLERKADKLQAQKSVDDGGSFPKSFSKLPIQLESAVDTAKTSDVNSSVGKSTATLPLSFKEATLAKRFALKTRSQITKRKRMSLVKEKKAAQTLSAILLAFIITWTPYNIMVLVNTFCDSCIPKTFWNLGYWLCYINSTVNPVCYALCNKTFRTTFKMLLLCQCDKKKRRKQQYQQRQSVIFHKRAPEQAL
COX1, sequence (P23219 24-599): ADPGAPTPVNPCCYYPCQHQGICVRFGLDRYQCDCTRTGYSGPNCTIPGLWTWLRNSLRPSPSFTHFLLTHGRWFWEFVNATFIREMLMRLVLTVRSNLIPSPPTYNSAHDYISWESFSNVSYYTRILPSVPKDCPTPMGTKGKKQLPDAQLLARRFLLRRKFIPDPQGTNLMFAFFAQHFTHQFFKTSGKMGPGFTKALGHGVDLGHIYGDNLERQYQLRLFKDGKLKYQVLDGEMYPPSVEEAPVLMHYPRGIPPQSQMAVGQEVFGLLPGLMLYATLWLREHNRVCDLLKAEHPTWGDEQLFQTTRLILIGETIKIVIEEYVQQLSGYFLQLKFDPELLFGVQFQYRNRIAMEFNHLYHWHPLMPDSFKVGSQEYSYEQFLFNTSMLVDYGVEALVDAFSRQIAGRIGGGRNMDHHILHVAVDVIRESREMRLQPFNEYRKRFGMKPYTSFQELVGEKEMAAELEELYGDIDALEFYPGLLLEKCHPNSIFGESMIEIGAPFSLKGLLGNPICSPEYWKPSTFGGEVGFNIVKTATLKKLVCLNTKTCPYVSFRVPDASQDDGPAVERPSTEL

For `CC[C@H](C)[C@H](NC(=O)[C@H](CC(C)C)NC(=O)[C@H](CC(=O)O)NC(=O)CNC(=O)[C@H](CCCNC(=N)N)NC(=O)[C@@H](NC(=O)[C@H](Cc1ccccc1)NC(=O)[C@H](Cc1ccc(O)cc1)NC(=O)[C@@H]1CCC(=O)NCC(=O)NCC(=O)N[C@@H](CCCNC(=N)N)C(=O)NCC(=O)N[C@@H](Cc2c[nH]cn2)C(=O)N[C@@H](C(C)C)C(=O)N2CCC[C@H]2C(=O)N1)C(C)C)C(=O)N[C@@H](CO)C(=O)N[C@@H](Cc1ccccc1)C(=O)N[C@@H](Cc1ccc(O)cc1)C(=O)N[C@@H](CCCCN)C(=O)O` [lassotide 36] (GGRGHVPEYFVRGDLISFYK-OH; lactam N-8), the IC50 on ADORA2A, against COX1, against HTR3A, on VEGFR2, at HRH1 and against CHRM2 [2] was above 45 µM throughout. The Emax on ADORA2A was determined as 0%; at COX1, 21%; at CHRM2 [1], 7.71%; at CHRM3 it was 2.89%; at OPRM1 it was 3.7%; at HTR3A it was 8.73%. Further, the Emax was 6.3% at VEGFR2; 0.3% on HRH1; 0% on CHRM2 [2]; 4.58% on CCKAR; 6.18% on OPRD1. Besides, the concentration for a half-maximal effect (EC50) on CHRM2 [1], on CHRM3, at OPRM1, on CCKAR and at OPRD1 was above 45 µM throughout.

As to `CC[C@H](C)[C@H](NC(=O)[C@H](CC(C)C)NC(=O)[C@H](CC(=O)O)NC(=O)CNC(=O)[C@H](CCCNC(=N)N)NC(=O)[C@@H](NC(=O)[C@H](Cc1ccccc1)NC(=O)[C@H](Cc1ccc(O)cc1)NC(=O)[C@@H]1CCC(=O)NCC(=O)NCC(=O)N[C@@H](CCCNC(=N)N)C(=O)NCC(=O)N[C@@H](Cc2c[nH]cn2)C(=O)N[C@@H](C(C)C)C(=O)N2CCC[C@H]2C(=O)N1)C(C)C)C(=O)N[C@@H](CO)C(=O)N[C@@H](Cc1ccccc1)C(=O)N[C@@H](Cc1ccc(O)cc1)C(=O)N[C@@H](CCCCNC(=O)CCOCCOCCNC(=O)CCCc1ccc(I)cc1)C(=O)O` [lassotide 47] (GGRGHVPEYFVRGDLISFYK([PEG2-Butanoyl(4-(4-I-phenyl))])-OH; lactam N-8), the IC50 on ADORA2A, on COX1, against HTR3A, at VEGFR2, on HRH1 and against CHRM2 [2] was above 45 µM in each case. Besides, the Emax on ADORA2A was found to be 7.44%; on COX1, 19.4%; on CHRM2 [1] it was 32.7%; on CHRM3, 1.93%; at OPRM1, 18.4%; at HTR3A it was 9.38%. Further, the Emax at VEGFR2 worked out at 2.92%; at HRH1, 0%; on CHRM2 [2], 0%; at CCKAR, 0%; at OPRD1 it was 17.4%. The half-maximal effective concentration (EC50) on CHRM2 [1], on CHRM3, on OPRM1, at CCKAR and at OPRD1 was above 45 µM throughout.

The values above are taken from doi:10.1101/2025.01.28.635346v1 (bioRxiv, 2025).
